The numbers were not newly measured in publication PMC4483627 (Marine Drugs, 2015), which cites them from elsewhere.

For this data set, the target named is T1, rat nAChR α3β4 (Rattus norvegicus, UniProt P04757+P12392).
T1 construct: expressed in transfected cells; host or cells: Xenopus oocytes injected with cRNA
Particulars: cited from earlier work.

T1 sequence (P04757 26-499 limits assumed): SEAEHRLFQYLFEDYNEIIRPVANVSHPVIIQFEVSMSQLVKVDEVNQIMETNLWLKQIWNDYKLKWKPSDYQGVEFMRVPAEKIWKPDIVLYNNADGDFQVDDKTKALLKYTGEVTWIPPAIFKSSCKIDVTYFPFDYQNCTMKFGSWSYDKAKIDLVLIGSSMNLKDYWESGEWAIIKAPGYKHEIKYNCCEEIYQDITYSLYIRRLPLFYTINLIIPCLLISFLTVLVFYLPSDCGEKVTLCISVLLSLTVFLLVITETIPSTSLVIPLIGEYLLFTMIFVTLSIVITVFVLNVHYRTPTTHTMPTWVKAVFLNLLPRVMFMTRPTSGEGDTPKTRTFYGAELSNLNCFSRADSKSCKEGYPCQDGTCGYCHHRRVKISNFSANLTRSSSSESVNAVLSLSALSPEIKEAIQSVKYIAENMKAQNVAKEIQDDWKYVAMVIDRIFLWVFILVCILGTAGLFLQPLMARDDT
T1 sequence (P12392 21-495 limits assumed): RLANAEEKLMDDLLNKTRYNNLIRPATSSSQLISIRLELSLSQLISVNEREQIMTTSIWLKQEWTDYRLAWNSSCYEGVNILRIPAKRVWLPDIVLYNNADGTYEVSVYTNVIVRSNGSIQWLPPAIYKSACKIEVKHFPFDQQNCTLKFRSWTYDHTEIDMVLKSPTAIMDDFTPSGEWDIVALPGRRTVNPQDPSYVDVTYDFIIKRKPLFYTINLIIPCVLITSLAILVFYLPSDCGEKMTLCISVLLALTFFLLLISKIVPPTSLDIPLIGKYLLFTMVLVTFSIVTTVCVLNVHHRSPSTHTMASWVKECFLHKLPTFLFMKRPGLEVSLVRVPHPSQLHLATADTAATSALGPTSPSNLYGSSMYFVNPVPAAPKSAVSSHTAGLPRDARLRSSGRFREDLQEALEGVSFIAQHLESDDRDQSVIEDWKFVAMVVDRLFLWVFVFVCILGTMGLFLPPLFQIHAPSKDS

Turning to “G CC SHP V C SAMS P I- C * (bicyclic or more) [TxID]”, the IC50 was 12.5 nM.
